Assay results as given in BindingDB's records for doi:10.1021/acs.jmedchem.8b01300 (Emory University School of Medicine, 2019).

Experiments:
[1] = target: RNA-directed RNA polymerase (Hepacivirus hominis, UniProt Q8JXU8); test: Inhibition of NS5B polymerase in wild type HCV genotype 1b infected in human Huh7 replicon cells after 5 days by RT-PCR assay
[2] = Inhibition of NS5B polymerase in wild type HCV genotype 1b infected in human Huh7 replicon cells after 5 days by RT-PCR assay

EC50 [2] [µM]	Structure (SMILES)	EC50 [1] [µM]
–	C[C@@]1(O)[C@H](O)[C@@H](CO)O[C@H]1n1ccc(N)nc1=O	2.8
–	CC(C)OC(=O)[C@H](C)NP(=O)(OC[C@H]1O[C@@H](n2ccc(N)nc2=O)[C@](F)(Br)[C@H]1O)Oc1ccccc1 (stereo not given in full)	0.6
> 10	Nc1nc2c(ncn2[C@@H]2O[C@H](CO)[C@@H](O)[C@]2(F)Br)c(=O)[nH]1	–
–	Nc1ccn([C@@H]2O[C@H](CO)[C@@H](O)[C@]2(F)Br)c(=O)n1	4
–	Nc1ncnc2c1ncn2[C@@H]1O[C@H](CO)[C@H](O)[C@@]1(F)Br	> 10
